These results are taken from US9808434B2, “Compound for treating cancer and diabetes” (CITY OF HOPE, priority 2011, dated 2017).

The test system of test [1] is human melanoma cells (SK-MEL28, A2058, A101D). The test can be described thus: Oxygen consumption rate in melanoma cells, Seahorse. The following applies: 1-10 μM, monitored 2 h. Format: cell-based. The procedure:
(§1) Oxygen consumption rate (OCR), a measure of OxPhos, and extracellular acidification rate (ECAR), a measure of lactate production by glycolysis, were measured using a Seahorse Xf^e96 Flux Analyzers (Seahorse Biosciences, North Billerica, Mass.). Cells were seeded in DMEM media in Seahorse 96-well tissue culture plates at a density of 5×10^3 cells/well and allowed to adhere for 24 h. Prior to the assay, the media was changed to unbuffered DMEM containing 25 mM glucose, 1 mM pyruvate and 1 mM glutamine, with 0.2% fatty acid/endotoxin-free BSA (w/v) (pH 7.4) and the cells were equilibrated for 30 min at 37° C. Test compounds were injected during the assay and OCR and ECAR were measured using 2-3 min measurement periods. […] OCR was measured throughout the different injections of the stressors and test compounds (indicated by arrows in the figures).
The importance of mitochondria as oxygen sensors as well as producers of ATP and ROS has recently become a focal point of cancer research. […] OCR was continuously monitored for 2 h. Mitochondria recoupler 6-KCH (200 μM) was added to the assay system prior to injection of COH-SR4 (5 μM) as shown by arrows and OCR of A101D cells were monitored (FIG. 37B). […]

In test [2] the test system is mouse C2C12, HepG2, and 3T3-L1 cells. Kind of test: Oxygen consumption rate in myotubes, liver cells, adipocytes. It is filed as cell-based. The procedure:
as §1, with “periods. Similar sets of experiments were performed in the presence of the mitochondria recoupler agent 6-KCH or the mitochondrial permeability transition (MPT) pore blocker CSA, where each compound was injected into the assay media prior to COH-SR4 or FCCP injection. In separate experiments with A2058 and A2058 p° cells, a modified Mitostress test was performed accordingly per Seahorse protocols (89, 90).” for “periods.”, “figures). […]” for “figures).”

For test [3], the system named is A2058. The test can be described thus: MTT assay, A2058. It is filed as cell-based. Particulars: Homo sapiens, A2058, 96 h. Here is the method: Cell density measurements were performed using a hemocytometer to count reproductive cells resistant to staining with trypan blue. Approximately 20,000 cells were plated into each well of 96-well flat-bottomed micro-titer plates. After 12 h or 24 h incubation at 37° C., medium containing either COH-SR4 (ranging 0-200 μM) or elesclomol (ranging 0-20 μM) were added to the cells. After 24 h, 48 h or 96 h incubation, 20 μL of 5 mg/mL MTT were introduced to each well and incubated for 2 h. The plates were centrifuged and medium was decanted. Cells were subsequently dissolved in 100 μl DMSO with gentle shaking for 2 h at room temperature, followed by measurement of OD570 (91).

For test [4], the target named is T1, GSTP (Homo sapiens, UniProt P09211).
T1 construct: made in house; host or cells: E. coli BL21 (DE3)
T1 sequence (P09211 whole entry): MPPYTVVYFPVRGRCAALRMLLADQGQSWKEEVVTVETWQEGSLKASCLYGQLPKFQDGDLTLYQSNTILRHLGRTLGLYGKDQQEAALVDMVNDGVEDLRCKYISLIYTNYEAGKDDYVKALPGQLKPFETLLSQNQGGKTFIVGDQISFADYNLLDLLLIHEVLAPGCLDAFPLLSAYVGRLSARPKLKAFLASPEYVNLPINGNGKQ
Kind of test: GSTP activity towards CDNB in the presence of GSR4. It is filed as biochemical. Particulars: activity towards CDNB; read-out: estimated Ki (product inhibitor of GSTP). The procedure:
Furthermore, GSTP activities towards CDNB were assessed in the presence of various concentration of GSR4. The GSTP activities decreased when the concentration of GSR4 increased (Table 3). Thus, […] was a product inhibitor of GSTP with an estimated Ki of less than 5 μM.

Test [5] deals with U87. The test can be described thus: Glioma ATP viability assay, U87. Format: cell-based. The following applies: Homo sapiens, U-87 MG; Table 1; 72 hours. The procedure: Cells of each cell line (U251, U87, PBT-017, PBT018, PBT003 and PBT028) were treated with various concentrations (0˜100 μM) of COH-SR4 for 72 hours. Cell viabilities were determined by ATP viability assays. Data were represented as a ratio to vehicle (DMSO) control, and plotted as mean±SEM (n=12) obtained from 2˜3 experiments (FIG. 34A).
Cells of each cell line (U87, U251, PBT003 and PVT-017) were treated with various concentrations (0˜100 μM) of COH-SR4 for 72 hours. Cell viabilities were determined by ATP viability assays. Data were represented as a ratio to vehicle (DMSO) control, and plotted as mean±SEM (n=12) obtained from 2-3 experiments (FIG. 34B).

In test [6] the test system is 3T3-L1 cells. Kind of test: Intracellular triglyceride contents, AdipoRed Assay. Format: cell-based, mouse. Particulars: 7 days in DM + compound. Here is the method: Intracellular triglyceride contents were measured using AdipoRed Assay™ and the results were shown in relative fluorescence units (RFU) in FIG. 5.
(§2) 3T3-L1 preadipocytes cells were treated with differentiating media (DM) with COH-SR4 (1 μM, 3 μM, or 5 μM) or without for 7 days. […] As used in FIG. 9C, U=undifferentiated, D=differentiated with cocktail media.

The subject of test [7] is HIF-1α. The test can be described thus: HIF-1α protein expression in U251, immunoblotting. It is filed as cell-based. The following applies: U251, 1-10 μM. The procedure: U251 cells were incubated with various concentrations of COH-SR4 (1˜10 μM). Whole-cell lysates were analyzed by immunoblotting with antibodies against HIF-1α. GAPDH was used as a loading control.
Test [8] relates to ACL, adiponectin, C/EBPα, Glut4, PPARγ. Kind of test: Adipogenic marker protein expression, Western blotting. Format: cell-based, mouse. The following applies: 7 days in DM + compound. Here is the method: Post-confluent 3T3-L1 preadipocytes were differentiated for 7 days in the presence of differentiating media (DM), or DM+ test compounds (LR23 (5 μM, 25 μM, or 50 μM), LR59 (5 μM, 25 μM, or 50 μM), LR-90 (25 μM), ROS (50 μM), TSA (0.5 μM) or apicidin (1 μM)). Protein levels were analyzed by Western blotting and the relative expression of each protein was quantified using a densitometer and calculated according to the reference bands of β-actin (FIG. 8). Numbers above each blot represent fold increase over control (undifferentiated preadipocytes).
as §2

Entries after “also recorded” stand apart in the source; their conditions may differ. Where only a bound is given, the exact number is not on record here.

Turning to `O=C(Nc1cc(Cl)cc(Cl)c1)Nc1cc(Cl)cc(Cl)c1` [COH-SR4, 1,3-bis(3,5-dichlorophenyl) urea], in test [1], the “oxygen consumption rate (OCR)” value is “increased OCR in a time-dependent and dose-dependent manner”. For the same molecule, the OCR result in test [2] was “dose- and time dependently increased the OCR”. Moreover, the IC50 in test [3] came to 11 ± 2 µM; in test [5], 2.8 µM. Further, the Ki in test [4] is < 5 µM. Moreover, the “intracellular triglyceride contents (AdipoRed Assay)” value in test [6] is reported as “decreased intracellular triglyceride contents; also recorded: dose-dependently reduced”. Besides, in test [7], the HIF-1α protein expression entry was “inhibited HIF-1α protein expression”. Moreover, in test [8], the “expression of adipogenic markers” value is “decreased expression of key transcription factors (C/EBPα, PPARγ) and proteins (ACL, adiponectin, FAS)”.
